One experiment has as its system serotonin-2 receptors. As to the kind of experiment: Anti-serotonin (5-HT) action: 5-HT-induced contraction of isolated superior mesenteric artery. Particulars: contraction by 10^−5 M 5-HT taken as 100%, guinea pig superior mesenteric artery. As for the experimental part: (1) Anti-Serotonin (5-HT) Action
A preparation cut in a helical form was suspended under resting-tension of 0.3 g in a Magnus cylinder filled with the Tyrode solution which had been aerated with a gas mixture of 95% O2 and 5% CO2 and maintained at 37° C. Using an isometric transducer (“UL-10”, manufactured by SHINKOH K. K.) and a pressure preamplifier (“DSA-605A”, manufactured by SHINKOH K. K.), variations in tension were measured. The isometric tensions were recorded on a pen-writing recorder (“VP-6537A”, manufactured by NATIONAL K. K.). Taking the contraction induced by 10^−5 M serotonin (5-HT) as 100%, the percent contractions by 10^−5 M 5-HT in the presence of each test drug at 10^−7 M and 10^−6 M were determined as anti-5-HT action.

A further experiment deals with α1 receptors. As to the kind of experiment: Anti-α1 action: norepinephrine-induced tonic contraction of isolated thoracic aorta. Particulars: tonic contraction by 10^−5 M norepinephrine taken as 100%, guinea pig thoracic aorta. Here is the method:
The thoracic aorta of each Hartley male guinea pig (body weight: 300–500 g) was excised. A preparation cut in a helical form was suspended under 1 g load in a Magnus cylinder filled with the Tyrode solution which had been aerated with a gas mixture of 95% O2 and 5% CO2 and maintained at 37° C. Using an isometric transducer (“TB-612J”, manufactured by Nihon Kohden Corporation) and a pressure preamplifier (“AP-620G”, manufactured by Nihon Kohden Corporation), variations in tension were measured. The isometric tensions were recorded on a thermal pen-writing recorder (“WT-647G”, manufactured by Nihon Kohden Corporation). Taking the tonic contraction induced by 10^−5 M norepinephrine (NE) as 100%, the percent contractions upon addition of each test drug at 10^−8 M and 10^−7 M were determined and recorded as α1 action.

Take `Cn1ccc2c1C(=O)CCN(CCCN1CCC(C(=O)c3ccc(F)cc3)CC1)S2(=O)=O` [Compound 22, 2-[3-[4-(4-fluorobenzoyl)piperidino]propyl]-6-methyl-3,4,5,6-tetrahydro-2H-pyrrolo[2,3-f][1,2]thiazepin-5-one 1,1-dioxide]: the “Anti 5-HT action (% of Control)” value is given as 21.3 % of Control with serotonin-2 receptors (test drug 10^−6 M) and 75.3 % of Control with serotonin-2 receptors (test drug 10^−7 M). Besides, the “Anti α1 action (% of Control)” value with α1 receptors (test drug 10^−7 M) was 64.9 % of Control; in the experiment on α1 receptors (test drug 10^−8 M) it was 91.2 % of Control.
Taken in the same sequence, the figures for `Cn1ccc2c1C(=NO)CN(CCCN1CCN(c3ccc(F)cc3)CC1)S2(=O)=O` [Compound 25, 2-[3-[4-(4-fluorophenyl)piperazin-1-yl]propyl]-4-hydroxyimino-5-methyl-2,3,4,5-tetrahydropyrrolo[2,3-e][1,2]thiazine 1,1-dioxide] were 19.6 % of Control, 69.8 % of Control, 24.1 % of Control and 65.3 % of Control.
Taken in the same sequence, the figures for `Cn1ccc2c1C(=NO)CN(CCCN1CCC(C(=O)c3ccc(F)cc3)CC1)S2(=O)=O` [Compound 26, 2-[3-[4-(4-fluorobenzoyl)piperidino]propyl]-4-hydroxyimino-5-methyl-2,3,4,5-tetrahydropyrrolo[2,3-e][1,2]thiazine 1,1-dioxide] were 18.2 % of Control, 54.6 % of Control, 73.1 % of Control and 99.6 % of Control.
Taken in the same sequence, the figures for `Cn1ccc2c1C(=NO)CCN(CCCN1CCN(c3ccc(F)cc3)CC1)S2(=O)=O` [Compound 27, 2-[3-[4-(4-fluorophenyl)piperazin-1-yl]propyl]-5-hydroxyimino-6-methyl-3,4,5,6-tetrahydro-2H-pyrrolo[2,3-f][1,2]thiazepine 1,1-dioxide] were 22.7 % of Control, 76.2 % of Control, 53.0 % of Control and 91.2 % of Control.
`Cn1ccc2c1C(O)CCN(CCCN1CCN(c3ccc(F)cc3)CC1)S2(=O)=O` (centres unmarked) [Compound 30, 2-[3-[4-(4-fluorophenyl)piperazin-1-yl]propyl]-5-hydroxy-6-methyl-3,4,5,6-tetrahydro-2H-pyrrolo[2,3-f][1,2]thiazepine 1,1-dioxide]: the entries for the “Anti 5-HT action (% of Control)” value in the experiment with serotonin-2 receptors (test drug 10^−6 M) and in the experiment on serotonin-2 receptors (test drug 10^−7 M) were 37.2 % of Control and 83.5 % of Control, respectively. Moreover, the “Anti α1 action (% of Control)” value in the experiment on α1 receptors (test drug 10^−7 M) was 88.0 % of Control; in the experiment on α1 receptors (test drug 10^−8 M) it was 102.3 % of Control.

Values taken from US7057036B2, “Pyrrolothiazine and pyrrolothiazepine compounds having serotonin-2 receptor antagonistic and alpha-1-blocking action” (Daiichi Suntory Pharma Co., Ltd., priority 1997, dated 2006).
